Measurements taken from PMC6000956, “Immunomodulatory activities of pixatimod: emerging nonclinical and clinical data, and its potential utility in combination with PD-1 inhibitors” (Journal for Immunotherapy of Cancer, 2018).

Assays:
Type in all cases: in vivo
[1] = Toxicokinetics in the 1 month IV toxicology study in beagle dogs; settings: dog, plasma
Procedure: (§1) A 1 month toxicology study of pixatimod in beagle dogs was performed under OECD Good Laboratory Practice (GLP) to assess the toxicity and toxicokinetic profile of pixatimod with 5 intravenous, short term (approximately 1 h) infusions at three defined dose levels of 2.5, 7.5 and 20 mg/kg weekly over 29 days. Blood samples were collected for toxicokinetic investigation to provide information on the systemic exposure. Parameters monitored included mortality and morbidity, clinical signs, food consumption, body weight and body temperature, ophthalmoscopy and electrocardiographic measurements. Laboratory investigations were performed using haematology (ADVIA 120), coagulation (AMAX Density Plus Coagulometer), clinical chemistry (VITROS 950) and urinalysis (URYXXON 300). At the end of the treatment, all animals were euthanized and subjected to a complete necropsy with selected organs weighed and followed by a detailed histopathology evaluation. Bone marrow smears from the femur and sternum were prepared at necropsy, fixed and stained with May-Grünwald and Giemsa stain for analysis. Blood samples obtained during the Phase Ia monotherapy study (PG545102) were collected weekly and the parameters reported herein were analysed by local hospital laboratories.
(§2) Plasma samples were analysed using a LC-MS/MS method as previously described. Pharmacokinetic parameters in animal studies were determined by non-compartmental analyses (NCA) of the mean plasma pixatimod concentration vs time profiles for each dose using the linear trapezoidal method in WinNonlin 5.2.1. For comparison with previous animal studies, exposure data (AUC0-last) in clinical samples were derived using individual subject NCA type exposure parameters from the original plasma concentration data using R (64-bit) Version 3.0.1.

[2] = Plasma exposure in the Phase Ia monotherapy study (PG545102), IV infusion; settings: human
Procedure: as §1, §2

beagle dogs [3] = assay: 1 month GLP toxicology study, weekly IV infusion
Procedure: as §1
In the 4T1.2 model, the percentage tumor growth inhibition was determined according to the following formula: 100 × (1-ΔT/ ΔC) where ΔC and ΔT were calculated by subtracting the mean tumor volume in each group on day 1 of treatment from the mean tumor volume on the day of analysis. Statistical analysis was performed using GraphPad Prism, v 6.0 (GraphPad, La Jolla, CA). An ANOVA analysis was performed followed by Dunnett’s post hoc test to compare the tumor growth in the treated groups to the vehicle control. In the dog toxicology study, the analysis was performed using non-parametric Kruskal-Wallis test. The frequency of clinical observations, and necropsy and histopathology findings, was calculated as applicable. For all statistical analyses, statistically significance differences between control and treatment groups was signified by *P < 0.05, **P < 0.01, ***P < 0.001, ****P < 0.0001 versus vehicle control.

beagle dogs [4] = assay: Previous repeated weekly SC toxicology study in beagle dogs (organ weights); settings: weekly SC x5, 2.5, 7.5 and 20 mg/kg
Procedure: Supplementary file 40425_2018_363_MOESM2_ESM.pptx: Additional file 2: Effect of pixatimod dosing on selected organ weights in beagle dogs (IV and SC) and rats (SC). Repeated weekly IV exposure (× 5) of pixatimod increases the relative weights of liver (A) and kidney (B) but not thymus (C) nor spleen (D) in beagle dogs. […] Data shown is for combined sexes. […] Study size, n = 15 for control and 48 mg/kg groups and n = 10 for 3 and 12 mg/kg groups. […] Study size, n = 5 for control and 20 mg/kg groups and n = 3 for 2.5 and 7.5 mg/kg groups. *P < 0.05, **P < 0.01, ***P < 0.001 versus control (Kruskal-Wallis test for the dog study, ANOVA followed by Dunnett’s comparison for the rat study). (PPTX 65 kb)

[5] = High Dose (20 mg/kg), 6 animals examined
[6] = Low Dose (2.5 mg/kg), 6 animals examined
[7] = Mid Dose (7.5 mg/kg), 6 animals examined

Work on `CC(C)CCC[C@@H](C)[C@H]1CC[C@H]2[C@@H]3CC[C@H]4C[C@@H](O[C@@H]5O[C@H](COS(=O)(=O)O)[C@@H](O[C@H]6O[C@H](COS(=O)(=O)O)[C@@H](O[C@H]7O[C@H](COS(=O)(=O)O)[C@@H](O[C@H]8O[C@H](COS(=O)(=O)O)[C@@H](OS(=O)(=O)O)[C@H](OS(=O)(=O)O)[C@H]8OS(=O)(=O)O)[C@H](OS(=O)(=O)O)[C@H]7OS(=O)(=O)O)[C@H](OS(=O)(=O)O)[C@H]6OS(=O)(=O)O)[C@H](OS(=O)(=O)O)[C@H]5OS(=O)(=O)O)CC[C@]4(C)[C@H]3CC[C@]12C` [pixatimod] yielded an AUC(0-t) ([1]; 2.5 mg/kg, 2.5 mg/kg weekly IV (HED 83 mg), read-out: AUC0-last Week 1) of 697 µg·h/mL, an AUC(0-t) ([1]; 2.5 mg/kg, 2.5 mg/kg weekly IV (HED 83 mg), read-out: AUC0-last Week 4) of 1370 µg·h/mL and an AUC(0-t) ([1]; 7.5 mg/kg, 7.5 mg/kg weekly IV (HED 250 mg), read-out: AUC0-last Week 1) of 1810 µg·h/mL. For the same compound, the AUC(0-t) ([1]; 7.5 mg/kg, 7.5 mg/kg weekly IV (HED 250 mg), read-out: AUC0-last Week 4) was 4940 µg·h/mL, the AUC(0-t) ([1]; 20 mg/kg, 20 mg/kg weekly IV (HED 666 mg), read-out: AUC0-last Week 1) was 6880 µg·h/mL and the AUC(0-t) ([1]; 20 mg/kg, 20 mg/kg weekly IV (HED 666 mg), read-out: AUC0-last Week 4) was 10500 µg·h/mL. For the same compound, the AUC(0-t) ([2]; 25 mg, 25 mg weekly IV, read-out: AUC0-last Week 1) was 465 µg·h/mL, the AUC(0-t) ([2]; 25 mg, 25 mg weekly IV, read-out: AUC0-last Week 4) was 610 µg·h/mL and the AUC(0-t) ([2]; 50 mg, 50 mg weekly IV, read-out: AUC0-last Week 1) was 709 µg·h/mL. For the same compound, the AUC(0-t) ([2]; 50 mg, 50 mg weekly IV, read-out: AUC0-last Week 4) was 1690 µg·h/mL, the AUC(0-t) ([2]; 100 mg, 100 mg weekly IV, read-out: AUC0-last Week 1) was 1210 µg·h/mL and the AUC(0-t) ([2]; 100 mg, 100 mg weekly IV, read-out: AUC0-last Week 4) was 2380 µg·h/mL. For the same compound, the AUC(0-t) ([2]; 150 mg, 150 mg weekly IV, read-out: AUC0-last Week 1) was 1440 µg·h/mL, the AUC(0-t) ([2]; 150 mg, 150 mg weekly IV, read-out: AUC0-last Week 4) was 2780 µg·h/mL and the mortality (beagle dogs [3]; 2.5, 7.5 and 20 mg/kg weekly IV over 29 days) was “no mortality”. For the same compound, the “Kidney: Cell infiltrate, mixed, perivascular, animals affected” value (“Kidney: Cell infiltrate … animals affected” below) (beagle dogs [3]; [5]) was 6, the “Kidney: Cell infiltrate, mixed, perivascular, mild” value (beagle dogs [3]; [5]) was 4 and the “Kidney: Cell infiltrate, mixed, perivascular, minimal” value (from here on “Kidney: Cell infiltrate … minimal”) (beagle dogs [3]; [5]) was 1. The “Kidney: Cell infiltrate, mixed, perivascular, moderate” value (beagle dogs [3]; [5]) was 1, the “Kidney: Dilatation tubular, animals affected” value (beagle dogs [3]; [5]) was 6 and the “Kidney: Dilatation tubular, by grade (minimal or mild, not resolvable)” value (beagle dogs [3]; [5]) was 6. For the same compound, the “Kidney: Sclerosis glomerular, animals affected” value (beagle dogs [3]; [5]) was 3, the “Kidney: Sclerosis glomerular, mild” value (beagle dogs [3]; [5]) was 1 and the “Kidney: Sclerosis glomerular, minimal” value (beagle dogs [3]; [5]) was 2. For the same compound, the “Kidney: Vacuolation glomerular, animals affected” value (beagle dogs [3]; [5]) was 4, the “Kidney: Vacuolation glomerular, mild” value (beagle dogs [3]; [5]) was 4 and the “Liver: Cell infiltrate, mixed, diffuse, animals affected” value (from here on “Liver … diffuse, animals affected”) (beagle dogs [3]; [5]) was 2. The “Liver: Cell infiltrate, mixed, diffuse, mild” value (beagle dogs [3]; [5]) was 2, the “Liver: Cell infiltrate, mononuclear, multifocal, animals affected” value (“Liver: Cell infiltrate, mononuclear” below) (beagle dogs [3]; [5]) was 0 and the “Liver: Hypertrophy hepatocellular, animals affected” value (beagle dogs [3]; [5]) was 6. For the same compound, the “Liver: Hypertrophy hepatocellular, mild” value (beagle dogs [3]; [5]) was 5, the “Liver: Hypertrophy hepatocellular, minimal” value (beagle dogs [3]; [5]) was 1 and the “Liver: Hypertrophy, Kupffer cells, animals affected” value (beagle dogs [3]; [5]) was 6. For the same compound, the “Liver: Hypertrophy, Kupffer cells, mild” value (beagle dogs [3]; [5]) was 4, the “Liver: Hypertrophy, Kupffer cells, minimal” value (beagle dogs [3]; [5]) was 2 and the “Spleen: Cell infiltrate, mixed cellular, diffuse (minimal), animals affected” value (shortened to “Spleen: Cell infiltrate, mixed cellular”) (beagle dogs [3]; [5]) was 4. For the same compound, the “Thymus: Lymphoid atrophy, animals affected” value (beagle dogs [3]; [5]) was 2, the “Thymus: Lymphoid atrophy, mild” value (beagle dogs [3]; [5]) was 1 and the “Thymus: Lymphoid atrophy, minimal” value (beagle dogs [3]; [5]) was 1. For the same compound, the “Kidney: Cell infiltrate … animals affected” value (beagle dogs [3]; [6]) was 1, the “Kidney: Cell infiltrate … minimal” value (beagle dogs [3]; [6]) was 1 and the “Kidney: Dilatation tubular, animals affected” value (beagle dogs [3]; [6]) was 4. The “Kidney: Dilatation tubular, minimal” value (beagle dogs [3]; [6]) was 4, the “Kidney: Sclerosis glomerular, animals affected” value (beagle dogs [3]; [6]) was 0 and the “Kidney: Vacuolation glomerular, animals affected” value (beagle dogs [3]; [6]) was 0. The “Liver … diffuse, animals affected” value (beagle dogs [3]; [6]) was 0, the “Liver: Cell infiltrate, mononuclear” value (beagle dogs [3]; [6]) was 0 and the “Liver: Hypertrophy hepatocellular, animals affected” value (beagle dogs [3]; [6]) was 5. For the same compound, the “Liver: Hypertrophy hepatocellular, mild” value (beagle dogs [3]; [6]) was 3, the “Liver: Hypertrophy hepatocellular, minimal” value (beagle dogs [3]; [6]) was 2 and the “Liver: Hypertrophy, Kupffer cells, animals affected” value (beagle dogs [3]; [6]) was 2. For the same compound, the “Liver: Hypertrophy, Kupffer cells, mild” value (beagle dogs [3]; [6]) was 1, the “Liver: Hypertrophy, Kupffer cells, minimal” value (beagle dogs [3]; [6]) was 1 and the “Spleen: Cell infiltrate, mixed cellular” value (beagle dogs [3]; [6]) was 0. The “Kidney: Cell infiltrate … animals affected” value (beagle dogs [3]; [7]) was 5, the “Kidney: Cell infiltrate, mixed, perivascular, mild” value (beagle dogs [3]; [7]) was 1 and the “Kidney: Cell infiltrate … minimal” value (beagle dogs [3]; [7]) was 4. For the same compound, the “Kidney: Dilatation tubular, animals affected” value (beagle dogs [3]; [7]) was 6, the “Kidney: Dilatation tubular, mild” value (beagle dogs [3]; [7]) was 1 and the “Kidney: Dilatation tubular, minimal” value (beagle dogs [3]; [7]) was 5. The “Kidney: Sclerosis glomerular, animals affected” value (beagle dogs [3]; [7]) was 0, the “Kidney: Vacuolation glomerular, animals affected” value (beagle dogs [3]; [7]) was 0 and the “Liver … diffuse, animals affected” value (beagle dogs [3]; [7]) was 0. The “Liver: Cell infiltrate, mononuclear” value (beagle dogs [3]; [7]) was 0, the “Liver: Hypertrophy hepatocellular, animals affected” value (beagle dogs [3]; [7]) was 6 and the “Liver: Hypertrophy hepatocellular, mild” value (beagle dogs [3]; [7]) was 5. The “Liver: Hypertrophy hepatocellular, minimal” value (beagle dogs [3]; [7]) was 1, the “Liver: Hypertrophy, Kupffer cells, animals affected” value (beagle dogs [3]; [7]) was 6 and the “Liver: Hypertrophy, Kupffer cells, mild” value (beagle dogs [3]; [7]) was 2. The “Liver: Hypertrophy, Kupffer cells, minimal” value (beagle dogs [3]; [7]) was 4, the “Spleen: Cell infiltrate, mixed cellular” value (beagle dogs [3]; [7]) was 2 and the AST (beagle dogs [3]; after 5 weekly IV doses) was “significant changes”. The “large unstained cells (LUCs)” value (beagle dogs [3]; blood, following exposure) was “significant increases”, the bone marrow smears (beagle dogs [3]; femur and sternum at necropsy) was “No treatment-related changes” and the body temperature (beagle dogs [3]; following the first dose, dissipated upon repeat dosing by day 30) was “significant elevations”. For the same compound, the “absolute WBC counts and main subsets (lymphocytes, neutrophils and monocytes)” value (beagle dogs [3]; weekly IV dosing) was “remained within normal ranges”, the “relative weight of kidneys” value (beagle dogs [3]; weekly IV x5) was “significantly increased” and the “relative weight of liver” value (beagle dogs [3]; weekly IV x5) was “significantly increased”. For the same compound, the spleen weight (beagle dogs [3]; weekly IV x5) was “no effect”, the thymus weights (beagle dogs [3]; weekly IV x5) was “modest but dose-dependent decreases” and the spleen weight (beagle dogs [4]) was “no significant effect”.
